Legend:
Type in all cases: functional
Haemonchus contortus = assay: Compound was tested for the anthelmintic efficacy by using Haemonchus contortus larval assay
Artemia salina = assay: Compound was tested for the antiparasitic activity by using Artemia salina (brine shrimp) immobilization assay
Mus musculus [1] = species on record: Mus musculus; assay: Compound was tested for the anticonvulsant activity in pentamethylenetetrazole mouse epilepsy model
Mus musculus [2] = species on record: Mus musculus; assay: Compound was tested for the sedative effect by using mouse rotarod test; conditions: for minimal effective dose: read-out: MED

Molecule	IC100 (Haemonchus contortus)	IC100 (Artemia salina)	ED50 (Mus musculus [1])	MED (Mus musculus [2])	minimal effective dose (Mus musculus [2])	IC100 (Mus musculus [1])
CCC(C)[C@H]1O[C@]2(C=C[C@@H]1C)C[C@@H]1C[C@@H](C/C=C(\C)[C@@H](O[C@H]3C[C@H](OC)C(F)(F)[C@H](C)O3)[C@@H](C)/C=C/C=C3\CO[C@@H]4[C@H](O)C(C)=C[C@@H](C(=O)O1)[C@]34O)O2 (stereo partly drawn)	10 ng/mL	–	–	–	–	–
CCC(C)[C@H]1O[C@]2(C=C[C@@H]1C)C[C@@H]1C[C@@H](C/C=C(\C)C(F)(F)[C@@H](C)/C=C/C=C3\CO[C@@H]4[C@H](O)C(C)=C[C@@H](C(=O)O1)[C@]34O)O2 (stereo partly drawn)	10 ng/mL	325 ng/mL	–	–	–	–
CCC(C)[C@H]1O[C@@]2(C[C@@H]3C[C@@H](C/C=C(\C)[C@@H](O[C@H]4C[C@H](OC)[C@@H](O[C@H]5C[C@H](OC)[C@@H](O)[C@H](C)O5)[C@H](C)O4)[C@@H](C)/C=C/C=C4\CO[C@@H]5[C@H](OC)C(C)=C[C@@H](C(=O)O3)[C@]45O)O2)CC(F)(F)[C@@H]1C (stereo partly drawn)	10 ng/mL	–	–	–	–	–
IVERMECTIN	10 ng/mL	430 ng/mL	28.2 mg/kg	> 300 mg/kg	–	–
CCC(C)[C@H]1O[C@]2(C=C[C@@H]1C)C[C@@H]1C[C@@H](C/C=C(\C)[C@@H](O[C@H]3C[C@H](OC)[C@@H](O[C@H]4C[C@H](OC)C(F)(F)[C@H](C)O4)[C@H](C)O3)[C@@H](C)/C=C/C=C3\CO[C@@H]4[C@H](O)C(C)=C[C@@H](C(=O)O1)[C@]34O)O2 (stereo partly drawn)	10 ng/mL	5200 ng/mL	–	–	–	–
CN1C(=O)CN=C(c2ccccc2)c2cc(Cl)ccc21 [DIAZEPAM]	–	–	0.26 mg/kg	–	3 mg/kg	–
CCC(C)[C@H]1O[C@@]2(C[C@@H]3C[C@@H](C/C=C(\C)[C@@H](O[C@H]4C[C@H](OC)[C@@H](O[C@H]5C[C@H](OC)[C@@H](O)[C@H](C)O5)[C@H](C)O4)[C@@H](C)/C=C/C=C4\CO[C@@H]5[C@H](O)C(C)=C[C@@H](C(=O)O3)[C@]45O)O2)CC(F)(F)[C@@H]1C (stereo partly drawn)	10 ng/mL	13009 ng/mL	9 mg/kg	–	> 40 mg/kg	–
CCC(C)[C@H]1O[C@]2(C=C[C@@H]1C)C[C@@H]1C[C@@H](C/C=C(\C)[C@@H](O[C@H]3C[C@H](OC)[C@@H](O[C@H]4C[C@H](OC)[C@H](O)[C@H](C)O4)[C@H](C)O3)[C@@H](C)/C=C/C=C3\CO[C@@H]4[C@H](O)C(C)=C[C@@H](C(=O)O1)[C@]34O)O2 (stereo partly drawn)	–	430 ng/mL	–	–	–	28.2 ng/mL

Reference: ChEMBL document CHEMBL1130722, “Synthesis of gem-difluoro-avermectin derivatives: potent anthelmintic and anticonvulsant agents” (1998)
